Source: patent US20120289566A1, “COMBINATIONS OF FESOTERODINE AND SALIVARY STIMULANTS FOR THE TREATMENT OF OVERACTIVE BLADDER” (THERAVIDA, INC., priority 2011, published 2012)

Experiments:
saliva output = conditions: 5 mg of pilocarpine; cited from earlier work
saliva flow = test: Case study: stimulated saliva output (Parafilm chewing, 2 min) after Toviaz and pilocarpine in a single individual; type: in vivo, human; conditions: after the administration of 8 mg Toviaz
Method: In this study, the effect of fesoterodine (Toviaz®), pilocarpine, the combination of the two, and placebo was measured in separate, yet identical, studies in a single individual.
The following protocol was for a pilot human study to evaluate the extent of saliva flow rate following the administration of 8 mg Toviaz® capsule and 5 or 7.5 mg pilocarpine HCl tablet after about 2.5 hrs from fesoterodine administration. The subject was a healthy, person. The subject performed the following: • 1. Fast the night before. • 2. No coffee or soda 8 hrs prior to taking the first dose. • 3. Record time voiding and measure urine if possible. • 4. Record extent of dryness of the mouth (Very dry, dry, and not dry). • 5. Record any adverse event. • 6. Chew a 1″×1″ piece of Parafilm (American National Can (Neenah, Wis. 54956) Bar code No. 7-466676999) over 2 minutes. • 7. Collect wetted Parafilm and saliva into a tared container (pre-weighed container). • 8. Measure the amount of saliva collected. • 9. Plot Saliva collected per 2 min time intervals against time.
The subject fasted overnight, but had 240 mL of water 1 hr prior to dose. The water continued ad lib until 1 hr pre and 1 hr post dose, other than 120 mL with Toviaz® and 120 mL with 5 mg Salagen® tablet. For lunch, the subject consumed a light sandwich. No coffee, soda, or caffeinated or alcoholic beverages was consumed.

SMILES: CC[C@@H]1C(=O)OC[C@@H]1Cc1cncn1C [pilocarpine]
- time of maximum saliva output after administration (saliva output): about 30 minutes
- time of pilocarpine administration after Toviaz at which best results are obtained (saliva flow): 2.3 to 2.5 h
